Experimental data: US8394825B2, “Compound” (Sterix Limited, priority 2007, dated 2013)
Where two headings read alike, the source gives them in different places.

Tests used:
DU145 cells = assay: Antiproliferative assay in DU145 cells, WST-1 cell proliferation assay, 96 hours (GI50); format: cell-based
Procedure: Antiproliferative assays. DU145 cells were seeded into 96 well microtiter plates (5000 cells/well) and treated with […] of compounds or with vehicle control. At 96 hours post-treatment, live cell counts were determined by WST-1 cell proliferation assay (Roche, Penzberg, Germany), as per manufacturer's instructions. Viability results were expressed as a percentage of mean control values resulting in the calculation of the 50% growth inhibition (GI50). All experiments were performed in triplicate.

[1] = Homo sapiens, DU-145, 96 hours post-treatment, triplicate
[2] = 96 hours post-treatment, triplicate, read-out: DU-145 GI50

Question: For COc1cc2c(cc1O)CCN(Cc1cccc(Oc3ccccc3)c1)C2 [compound 43, 6-Hydroxy-7-methoxy-2-(3-phenoxybenzyl)-1,2,3,4-tetrahydroisoquinoline], which melting point is on record?
Answer: 139 to 140 °C

Question: And the GI50 (DU145 cells; [1])?
Answer: 10 to 50 µM

Question: Which melting point does the source give for COc1cc2c(cc1OCc1ccccc1)CCN(Cc1cccc(F)c1)C2 [compound 22, 6-Benzyloxy-2-(3-fluorobenzyl)-7-methoxy-1,2,3,4-tetrahydroisoquinoline] here?
Answer: 77 to 79.5 °C

Question: And the GI50 (DU145 cells; [1])?
Answer: > 100 µM

Question: Which melting point does the source give for COc1cc2c(cc1O)CCN(S(=O)(=O)c1cccc(C#N)c1)C2 [compound 186, 2-(3-Cyano-benzenesulfonyl)-6-hydroxy-7-methoxy-1,2,3,4-tetrahydroisoquinoline] here?
Answer: 204 to 206 °C

Question: And the GI50 (DU145 cells; [1])?
Answer: > 100 µM

Question: With COc1cccc(C(=O)N2CCc3cc(O)c(OC)cc3C2)c1 [compound 116, 6-Hydroxy-7-methoxy-2-(3-methoxybenzoyl)-1,2,3,4-tetrahydroisoquinoline] as the compound, how does the melting point read?
Answer: 141 to 142 °C

Question: And the GI50 (DU145 cells; [1])?
Answer: 10 to 50 µM

Question: Which results are given for COc1ccc(CN2CCc3cc(O)c(OC)cc3C2=O)cc1 [compound 159, 6-Hydroxy-7-methoxy-2-(4-methoxybenzyl)-3,4-dihydroisoquinolin-1(2H)-one]?
Answer: melting point: 171 to 172 °C; GI50 (DU145 cells; [1]): > 100 µM

Question: Which results are given for COc1ccc(CN2CCc3cc(OCc4ccccc4)c(OC)cc3C2)cc1 [compound 3, 6-Benzyloxy-7-methoxy-2-(4-methoxybenzyl)-1,2,3,4-tetrahydroisoquinoline]?
Answer: melting point: 96 to 97 °C; GI50 (DU145 cells; [1]): 50 to 100 µM

Question: With COc1cc2c(cc1O)CCN(Cc1cccc(OC)c1OC)C2 [compound 56, 6-Hydroxy-7-methoxy-2-(2,3-dimethoxybenzyl)-1,2,3,4-tetrahydroisoquinoline] as the compound, how does the melting point read?
Answer: 101 to 102 °C

Question: And the GI50 (DU145 cells; [1])?
Answer: > 100 µM

Question: What does the source list for COc1cc2c(cc1O)CCN(Cc1ccccc1)C2 [compound 38, 2-Benzyl-6-hydroxy-7-methoxy-1,2,3,4-tetrahydroisoquinoline]?
Answer: melting point: 134 to 135 °C; GI50 (DU145 cells; [1]): > 100 µM

Question: What does the source list for COc1cc2c(cc1OCc1ccccc1)CCN(S(=O)(=O)c1ccccc1OC)C2=O [compound 197, 6-Benzyloxy-7-methoxy-2-(2-methoxy-benzenesulfonyl)-3,4-dihydro-2H-isoquinolin-1-one]?
Answer: melting point: 202 to 203 °C; GI50 (DU145 cells; [1]): > 100 µM

Question: What does the source list for COc1cc2c(cc1O)CCN(C(=O)c1cccc(C#N)c1)C2=O [compound 144, 2-(3-Cyanobenzoyl)-6-hydroxy-7-methoxy-3,4-dihydro-2H-isoquinoline-1-one]?
Answer: melting point: 197 to 198 °C; GI50 (DU145 cells; [1]): 50 to 100 µM

Question: For COc1ccccc1COc1cc2c(cc1OC)C(=O)N(Cc1ccccc1OC)CC2 [compound 156, 7-Methoxy-2-(2-methoxybenzyl)-6-(2-methoxybenzyloxy)-3,4-dihydro-2H-isoquinolin-1-one], which melting point is on record?
Answer: 133 to 134 °C

Question: And the GI50 (DU145 cells; [1])?
Answer: > 100 µM

Question: With COc1cccc(S(=O)(=O)N2CCc3cc(O)c(OC)cc3C2=O)c1 [compound 201, 6-Hydroxy-7-methoxy-2-(3-methoxy-benzenesulfonyl)-3,4-dihydro-2H-isoquinolin-1-one] as the compound, how does the melting point read?
Answer: 195 to 197 °C

Question: And the GI50 (DU145 cells; [1])?
Answer: > 100 µM

Question: Which melting point does the source give for COc1ccc(OC)c(CN2CCc3cc(O)c(OC)cc3C2)c1 [compound 55, 6-Hydroxy-7-methoxy-2-(2,5-dimethoxybenzyl)-1,2,3,4-tetrahydroisoquinoline] here?
Answer: 104 to 105 °C

Question: And the GI50 (DU145 cells; [1])?
Answer: 50 to 100 µM

Question: Which results are given for COc1cc2c(cc1O)CCN(C(=O)c1cc(OC)c(OC)c(OC)c1)C2=O [compound 143, 6-Hydroxy-7-methoxy-2-(3,4,5-trimethoxybenzoyl)-3,4-dihydro-2H-isoquinolin-1-one]?
Answer: melting point: 175 to 176 °C; GI50 (DU145 cells; [1]): < 10 µM

Question: For COc1cc(OC)cc(C(=O)N2CCc3cc(O)c(OC)cc3C2=O)c1 [compound 141, 2-(3,5-Dimethoxybenzoyl)-6-hydroxy-7-methoxy-3,4-dihydro-2H-isoquinolin-1-one], which melting point is on record?
Answer: 198 to 199 °C

Question: And the GI50 (DU145 cells; [1])?
Answer: < 10 µM

Question: For COc1ccc(C(=O)N2CCc3cc(OCc4ccccc4)c(OC)cc3C2)cc1 [compound 108, 7-Methoxy-2-(4-methoxybenzoyl)-6-benzyloxy-1,2,3,4-tetrahydroisoquinoline], which melting point is on record?
Answer: 126 to 127 °C

Question: What about the GI50 (DU145 cells; [1]) of the same compound?
Answer: 10 to 50 µM

Question: With COc1cc2c(cc1O)CCN(S(=O)(=O)c1cccc(OC(F)(F)F)c1)C2 [compound 179, 6-Hydroxy-7-methoxy-2-(3-trifluoromethoxy-benzenesulfonyl)-1,2,3,4-tetrahydroisoquinoline] as the compound, how does the melting point read?
Answer: 202 to 203 °C

Question: What about the GI50 (DU145 cells; [1]) of the same compound?
Answer: > 100 µM

Question: With COc1cc2c(cc1OCc1ccccc1)CCN(Cc1cc(OC)c(OC)c(OC)c1)C2=O [compound 158, 6-(benzyloxy)-7-methoxy-2-(3,4,5-trimethoxybenzyl)-3,4-dihydro-2H-isoquinolin-1-one] as the compound, how does the melting point read?
Answer: 136 to 137 °C

Question: What about the GI50 (DU145 cells; [1]) of the same compound?
Answer: > 100 µM

Question: Which melting point does the source give for COc1cc2c(cc1O)CCN(Cc1cccc(F)c1)C2 [compound 60, 2-(3-Fluorobenzyl)-6-hydroxy-7-methoxy-1,2,3,4-tetrahydroisoquinoline] here?
Answer: 125 to 127 °C

Question: What about the GI50 (DU145 cells; [1]) of the same compound?
Answer: > 100 µM

Question: For COc1cc2c(cc1O)CCN(S(=O)(=O)c1cccc(C(F)(F)F)c1)C2 [compound 181, 6-Hydroxy-7-methoxy-2-(3-trifluoromethyl-benzenesulfonyl)-1,2,3,4-tetrahydroisoquinoline], which melting point is on record?
Answer: 178 to 180 °C

Question: And the GI50 (DU145 cells; [1])?
Answer: > 100 µM

Question: Which melting point does the source give for COc1cccc(CN2Cc3cc(OC)c(O)cc3CC2C)c1 (stereo not shown) [compound 217, 2-(3-Methoxybenzyl)-1,2,3,4-tetrahydro-7-methoxy-3-methylisoquinolin-6-ol] here?
Answer: 100 to 105 °C

Question: What about the GI50 (DU145 cells; Homo sapiens, DU-145, 96 hours post-treatment, 50% growth inhibition) of the same compound?
Answer: < 10 µM

Question: Which melting point does the source give for COc1ccc(CN2CCc3cc(O)c(OC)cc3C2)cc1 [compound 39, 6-Hydroxy-7-methoxy-2-(4-methoxybenzyl)-1,2,3,4-tetrahydroisoquinoline] here?
Answer: 162 to 163 °C

Question: What about the GI50 (DU145 cells; [1]) of the same compound?
Answer: > 100 µM

Question: What does the source list for COc1cc(OC)cc(C(=O)N2CCc3cc(OCc4ccccc4)c(OC)cc3C2)c1 [compound 110, 6-Benzyloxy-2-(3,5-dimethoxybenzoyl)-7-methoxy-1,2,3,4-tetrahydroisoquinoline]?
Answer: melting point: 130 to 131 °C; GI50 (DU145 cells; [1]): 10 to 50 µM

Question: Which melting point does the source give for COc1cc2c(cc1O)CCN(Cc1ccc(C#N)cc1)C2 [compound 65, 2-(4-Cyanobenzyl)-6-hydroxy-7-methoxy-1,2,3,4-tetrahydroisoquinoline] here?
Answer: 165 to 166.5 °C

Question: And the GI50 (DU145 cells; [1])?
Answer: > 100 µM

Question: Which melting point does the source give for COc1cc2c(cc1O)CCN(S(=O)(=O)c1cccc(C)c1)C2 [compound 180, 6-Hydroxy-7-methoxy-2-(toluene-3-sulfonyl)-1,2,3,4-tetrahydroisoquinoline] here?
Answer: 176 to 179 °C

Question: And the GI50 (DU145 cells; [1])?
Answer: > 100 µM

Question: Which melting point does the source give for COc1cc2c(cc1O)CCN(S(=O)(=O)c1ccccc1C#N)C2 [compound 183, 2-(2-Cyano-benzenesulfonyl)-6-hydroxy-7-methoxy-1,2,3,4-tetrahydroisoquinoline] here?
Answer: 164 to 167 °C

Question: And the GI50 (DU145 cells; [1])?
Answer: > 100 µM

Question: For COc1cc2c(cc1OCc1ccccc1)CCN(S(=O)(=O)c1cccc(Cl)c1)C2=O [compound 199, 6-Benzyloxy-2-(3-chloro-benzenesulfonyl)-7-methoxy-3,4-dihydro-2H-isoquinolin-1-one], which melting point is on record?
Answer: 155 to 158 °C

Question: And the GI50 (DU145 cells; [1])?
Answer: > 100 µM

Question: With COc1cccc(CN2CCc3cc(OCc4ccccc4)c(OC)cc3C2)c1 [compound 4, 6-Benzyloxy-7-methoxy-2-(3-methoxybenzyl)-1,2,3,4-tetrahydroisoquinoline] as the compound, how does the melting point read?
Answer: 71 to 72 °C

Question: What about the GI50 (DU145 cells; [1]) of the same compound?
Answer: 50 to 100 µM

Question: Which melting point does the source give for COc1cc2c(cc1O)CCN(Cc1cccc([N+](=O)[O-])c1)C2 [compound 66, 6-Hydroxy-7-methoxy-2-(3-nitrobenzyl)-1,2,3,4-tetrahydroisoquinoline] here?
Answer: 127 to 128 °C

Question: What about the GI50 (DU145 cells; [1]) of the same compound?
Answer: > 100 µM

Question: For COc1cc(CN2CCc3cc(O)c(OC)cc3C2)cc(OC)c1 [compound 42, 6-Hydroxy-2-(3,5-dimethoxybenzyl)-7-methoxy-1,2,3,4-tetrahydroisoquinoline], which melting point is on record?
Answer: 127 to 128 °C

Question: What about the GI50 (DU145 cells; [1]) of the same compound?
Answer: 50 to 100 µM

Question: With COc1cc2c(cc1OCc1ccccc1)CCN(S(=O)(=O)c1cccc(OC(F)(F)F)c1)C2 [compound 170, 6-Benzyloxy-7-methoxy-2-(3-trifluoromethoxy-benzenesulfonyl)-1,2,3,4-tetrahydroisoquinoline] as the compound, how does the melting point read?
Answer: 118 to 120 °C

Question: What about the GI50 (DU145 cells; [1]) of the same compound?
Answer: > 100 µM

Question: What does the source list for COc1cc(CN2CCc3cc(OCc4ccccc4)c(OC)cc3C2)cc(OC)c1 [compound 6, 6-Benzyloxy-2-(3,5-dimethoxybenzyl)-7-methoxy-1,2,3,4-tetrahydroisoquinoline]?
Answer: melting point: 95 to 96 °C; GI50 (DU145 cells; [1]): > 100 µM

Question: With COc1cccc(CN2CCc3cc(O)c(OC)cc3C2)c1 [compound 40, 6-Hydroxy-7-methoxy-2-(3-methoxybenzyl)-1,2,3,4-tetrahydroisoquinoline] as the compound, how does the melting point read?
Answer: 161 to 162 °C

Question: What about the GI50 (DU145 cells; [1]) of the same compound?
Answer: > 100 µM

Question: For COc1cc2c(cc1OS(N)(=O)=O)CC(C)N(Cc1cc(OC)c(OC)c(OC)c1)C2 (stereo not shown) [compound 222, 2-(3,4,5-Trimethoxybenzyl)-1,2,3,4-tetrahydro-7-methoxy-3-methylisoquinolin-6-O-sulfamate], which GI50 (DU145 cells; 96 hours post-treatment, 50% growth inhibition, read-out: DU-145 GI50) is on record?
Answer: < 10 µM

Question: With COc1cc2c(cc1OS(N)(=O)=O)CCN(C(=O)c1ccccc1OC)C2=O [compound 148, 7-Methoxy-2-(2-methoxybenzoyl)-6-O-sulfamoyl-3,4-dihydro-2H-isoquinolin-1-one] as the compound, how does the GI50 (DU145 cells; [2]) read?
Answer: < 10 µM

Question: Which GI50 (DU145 cells; [2]) does the source give for COc1ccc(C(=O)N2CCc3cc(OS(N)(=O)=O)c(OC)cc3C2=O)cc1OC [compound 151, 2-(3,4-Dimethoxybenzoyl)-7-methoxy-6-O-sulfamoyl-3,4-dihydro-2H-isoquinolin-1-one] here?
Answer: < 10 µM

Question: For COc1ccc(C(=O)N2CCc3cc(OS(N)(=O)=O)c(OC)cc3C2)cc1 [compound 124, 7-Methoxy-2-(4-methoxybenzoyl)-6-O-sulfamoyl-1,2,3,4-tetrahydroisoquinoline], which GI50 (DU145 cells; [2]) is on record?
Answer: < 10 µM
